# Measured values as given in ChEMBL document CHEMBL1146471, “Camptothecin and taxol: historic achievements in natural products research” (J Nat Prod, 2004).
# Species on record: Homo sapiens
# Assay: Anticancer activity against human with metastatic pancreatic cancer assessed as median survival
# Type: functional
compound,measurement,value
CCc1c2c(nc3ccc(OC(=O)N4CCC(N5CCCCC5)CC4)cc13)-c1cc3c(c(=O)n1C2)COC(=O)[C@]3(O)CC,Survival,10.3 months
